Patent publication US5714471A, “Peptide and peptide analog protease inhibitors” (SIBIA Neurosciences, Inc., priority 1995, dated 1998)
Non-standard residues stand in square brackets, D forms with d. Residues, ends and D or L forms follow the SMILES beside them. ξ: configuration not given here. *: point of attachment. Chg = N[CH](C(=O)O)C1CCCCC1; Nle = CCCC[CH](N)C(=O)O; Cbz = O=C(OCc1ccccc1)*; ξNle = CCCCC(N)C(=O)O; CHN2 = [N-]=[N+]=C*

Tested on: Aβ formation in HGB 717/Swed cells
Assay: Immunoblot assay for Aβ peptide (inhibition of Aβ formation)
Type: cell-based, human
Conditions: overnight incubation, conditioned medium, relative to DMSO control
Description: Human glioblastoma cells (ATCC Accession No. HTB16) were stably transfected with a DNA expression vector encoding a 695 amino acid isoform variant of the amyloid precursor protein (APP) containing the familial Swedish double mutations at codons 670 and 671 (K to N and M to L, respectively; see Mullan et al. (1992) Nature Genet. 1:345-347) and an additional mutation at codon 717 (V to F; see Murrell et al. (1991) Science 254:97-99) to produce cells designated HGB 717/Swed. High levels of Aβ are detectable in the conditioned medium isolated from HGb 717/Swed cultured cells. The medium also contains larger secreted fragments, α-sAPP695, which are alternatively processed APP fragments whose generation precludes Aβ formation.
HGB 717/Swed cells were grown at 37° C. under a 5% carbon dioxide atmosphere in Dulbecco's modified eagle medium (DMEM; Gibco) supplemented with 10% heat-inactivated fetal calf serum, 0.45% glucose, 2 mM L-glutamine, 100 units/ml penicillin, and 100 μg/ml streptomycin sulfate (Gemini Bioproducts). Approximately 1×10^6 cells were incubated overnight in 5 ml of DMEM containing varying μM final concentrations of desired test compounds or a DMSO control. Conditioned medium was collected, and unwanted cells and debris were removed by sedimentation at 3,000 rpm at 4° C.
Aβ peptides were isolated from the medium by immunoaffinity purification using an Aβ-specific antibody. To reduce the interaction of non-specific binding of unrelated proteins, such as serum proteins, to the antibody, the medium was pre-treated with rabbit antisera and Protein A Sepharose (Pharmacia) for 4 hours at 4° C. The sepharose-bound material was removed by centrifugation at 3,000 rpm at 4° C. for 10 min, and Aβ peptides were immunoaffinity purified from the clarified medium by incubation overnight with an affinity purified polyclonal rabbit antibody (referred to as 2939) prepared against a synthetic Aβ peptide corresponding to amino acids 1 to 28. Protein A-conjugated sepharose was added to immobilize the Aβ-antibody complexes, and the resin was pelleted by centrifugation at 3,000 rpm at 4° C. for 10 min. The Aβ -antibody complexes were eluted from the matrix by denaturing the complex by boiling in the presence of SDS.
Equal portions of each sample were loaded on 16% Tricine gels (Novex), and subjected to electrophoresis. Resolved proteins were transferred from the gel to Hybond nitrocellulose (Amersham, Arlington Heights, Ill.) by electroblotting, and incubated with the commercially available monoclonal antibody 6E10 (obtained from Drs. Kim and Wisniewski, Institute for Basic Research, New York, see, published International PCT application WO 90/12871), which specifically recognizes Aβ residues 1 to 17. Specifically bound antibody was detected using a biotinylated goat anti-mouse IgG secondary antibody (Sigma), followed by the addition of streptavidin conjugated to horseradish preoxidase (Amersham, Arlington Heights, Ill.), and documented by luminescent detection (Amersham). Levels of Aβ peptides were determined by laser densitometry of visualized films. A positive result in the assay is a decrease in the formation of the 4-kDa Aβ peptides relative to the DMSO control.

C=C(C)CC(C=O)NC(=O)[C@H](CC(C)C)NC(=O)[C@H](CC(C)C)OCc1ccccc1 (mixture of isomers) [2S--benzoxyvaleric--L--Lene--(H), (2SR)-N-[(2S)-2-benzoxy-4-methylpentanoyl]-L-Leu N-[2-(4-methyl-4-pentenal)]amide]
% INHIBITION OF Aβ (concentration of 40 μM): 85%

CC(=O)N[C@@H](CC(C)C)C(=O)N[C@@H](CC(C)C)C(=O)NC(C=O)CC1CCCCC1 (mixture of isomers) [Ac--L--L--Cha--(H), N-Ac-L-Leu-L-Leu-DL-cyclohexylalaninal]
% INHIBITION OF Aβ (concentration of 10 μM): 46%

CCCCC(NC(=O)[C@H](CC(C)C)NC(=O)[C@H](CC(C)C)NC(C)=O)C(=O)C(F)(F)F (mixture of isomers) [Ac--L--L--Nl--(TFMK), (3SR)-N-Ac-L-Leu-L-Leu N-[3-(1,1,1-trifluoro-2-oxo-heptyl)]amide]
% INHIBITION OF Aβ (concentration of 75 μM): 50%

CC=CCC(C=O)NC(=O)[C@H](CC(C)C)NC(=O)[C@H](CC(C)C)NC(C)=O (mixture of isomers) [Ac--L--L--Nlene--(H), (2SR)-N-Ac-L-Leu-L-Leu N [2-(trans-4-hexenal)]amide]
% INHIBITION OF Aβ (concentration of 75 μM): 96%

CC(C)C[C@H](NC(=O)OCc1ccccc1)C(=O)N[C@@H](Cc1ccccc1)C(=O)NC(C=O)CC1CCCCC1 (mixture of isomers) [Cbz--L--F--Cha--(H), (2SR)-N-Cbz-L-Leu-L-Phe-DL-cyclohexylalaninal]
% INHIBITION OF Aβ (concentration of 40 μM): 100%

C=C(C)CC(C=O)NC(=O)[C@H](Cc1ccccc1)NC(=O)[C@H](CC(C)C)NC(=O)OCc1ccccc1 (mixture of isomers) [Cbz--L--F--Lene--(H), (2SR)-N-Cbz-L-Leu-L-Phe-N-[2-(4-methyl-4-pentenal)]amide]
% INHIBITION OF Aβ (concentration of 10 μM): 69%

C=C(C)CC(C=O)NC(=O)[C@H](CC(C)C)NC(=O)[C@H](CC(C)C)NC(=O)OCc1ccccc1 (mixture of isomers) [Cbz--L--L--Lene--(H), (2SR)-N-Cbz-L-Leu-L-Leu N-[2-(4-methyl-4-pentenal)]amide]
% INHIBITION OF Aβ (concentration of 10 μM): 95%

CCCCC(C=O)NC(=O)[C@H](CC(C)C)N(C)C(=O)[C@H](CC(C)C)NC(=O)OCc1ccccc1 (mixture of isomers) [Cbz--L--[CH3]--L--Nl--(H), N-Cbz-L-Leu-L-(methyl)Leu-DL-norleucinal]
% INHIBITION OF Aβ (concentration of 40 μM): 77%

CCCCC(C=O)NC(=O)[C@H](CC(C)C)NC(=O)[C@H](CC(C)C)NC(=O)OCC1c2ccccc2-c2ccccc21 (mixture of isomers) [Fmoc--L--L--Nl--(H), N-Fmoc-L-Leu-L-Leu-DL-norleucinal]
% INHIBITION OF Aβ (concentration of 50 μM): 89%

CC(=O)NC(CC(C)C)C(=O)NC(CC(C)C)C(=O)NC(C=O)C1CCCCC1 [Ac--L--L--Chg--(H)] (Ac-Leu-Leu-[Chg]-aldehyde; configuration not given here)
% INHIBITION OF Aβ (concentration of 75 μM): 99%

CCCCC(C#N)NC(=O)[C@H](CC(C)C)NC(=O)[C@H](CC(C)C)NC(C)=O (stereo partly drawn) [Ac--L--L--Nl--(CN), (2S)-N-Ac-L-Leu-L-Leu N-[2-(hexanenitrile)]amide]
% INHIBITION OF Aβ (concentration of 75 μM): 94%

CCCCC(NC(=O)[C@H](CC(C)C)NC(=O)[C@H](CC(C)C)NC(C)=O)C(=O)C=[N+]=[N-] (stereo partly drawn) [Ac--L--L--Nl--(DM), N-Ac-L-Leu-L-Leu-L-Nle-COCHN2] (Ac-Leu-Leu-[ξNle]-CHN2)
% INHIBITION OF Aβ (concentration of 75 μM): 87%

CCCCC(C=O)NC(=O)C(CC(C)C)NC(=O)C1CCCN1C(=O)OCc1ccccc1 [Cbz--P--L--Nl--(H), N-Cbz-L-Pro-L-Leu-L-norleucinal] (Cbz-Pro-Leu-[Nle]-aldehyde; configuration not given here)
% INHIBITION OF Aβ (concentration of 40 μM): 80%

N-Cbz-L-Leu-L-Leu-DL-(methyl)norleucinal [Cbz--L--L--[CH3]--Nl--(H)]
% INHIBITION OF Aβ (concentration of 40 μM): 97%
